# Measured values published in patent US11214803B2, “Modulators of YAP1 expression” (Ionis Pharmaceuticals, Inc., priority 2019, dated 2022).
# Strand notation (5' to 3'): a small letter for the sugar, then the base; units joined by * are phosphorothioate-linked, units joined directly phosphodiester-linked; [ ] holds rarer units or linkages, { } end groups; capitals alone tell only the bases. k = constrained ethyl (cEt); [5mC] = 5-methylcytosine; d = 2'-deoxy (DNA)
# Test system: Yap1 mRNA
# Experiment: Antisense inhibition of human Yap1 in A-431 cells by cEt gapmers, single dose (Example 2, RTS4814)
# Assay type: cell-based
# Conditions: A-431 cells, 5,000 cells per well, free uptake, 2,000 nM modified oligonucleotide, approx. 48 hours, RTS4814, normalized to RIBOGREEN; Table 4; asterisk (*) = targets amplicon region of primer probe set
# Procedure, shortened: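 Read-out is Yap1 mRNA as percent of untreated cells, by real-time RT-PCR (probe set RTS4814) normalized to total RNA via RIBOGREEN. Cells were A-431 dosed with 2,000 nM gapmer without transfection for approximately 48 hours.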
row,Substance,YAP1 (% UTC)
1,716517 (antisense kT*kT*k[5mC]*dA*d[5mC]*dA*dA*d[5mC]*d[5mC]*d[5mC]*d[5mC]*d[5mC]*d[5mC]*k[5mC]*k[5mC]*k[5mC]) [Compound 716517],53
2,716550 (kG*k[5mC]*kA*d[5mC]*dT*dG*dA*dA*dT*dA*dT*dT*dG*k[5mC]*k[5mC]*kA; antisense) [Compound 716550],77
3,716409 (k[5mC]*kA*kG*dG*dA*dA*dG*dT*d[5mC]*dA*dT*d[5mC]*dT*kG*kG*kG; antisense) [Compound 716409],99
4,716496 (kG*kA*kA*dG*dA*dG*dA*dT*dT*dT*dT*dA*dT*kG*k[5mC]*k[5mC]; antisense) [Compound 716496],19

# Same assay, conditions: Table 5; A-431 cells, 5,000 cells per well, free uptake, 2,000 nM modified oligonucleotide, approx. 48 hours; RTS4814; normalized to RIBOGREEN; Yap1 mRNA relative to untreated control cells
row,Substance,YAP1 (% UTC)
1,716569 (k[5mC]*kT*k[5mC]*d[5mC]*dT*dT*dA*dA*d[5mC]*d[5mC]*d[5mC]*dG*dG*kG*kT*kT; antisense) [Compound 716569],115
2,716566 (kG*kG*kT*dA*dA*d[5mC]*dT*d[5mC]*dT*dT*d[5mC]*dT*dT*kT*k[5mC]*k[5mC]; antisense) [Compound 716566],102
3,716533 (antisense k[5mC]*kA*kA*dT*dT*d[5mC]*dA*dA*dG*dA*dA*dT*dA*k[5mC]*k[5mC]*k[5mC]) [Compound 716533],64

# Same assay, conditions: Table 6; A-431 cells, 5,000 cells per well, free uptake, 2,000 nM modified oligonucleotide, approx. 48 hours; RTS4814; normalized to RIBOGREEN; Yap1 mRNA relative to untreated control cells
row,Substance,YAP1 (% UTC)
1,716384 (kA*kG*kG*dA*d[5mC]*d[5mC]*dT*dG*dA*dA*dG*d[5mC]*d[5mC]*kG*kA*kG; antisense) [Compound 716384],71

# Same assay, conditions: Table 18; A-431 cells, 5,000 cells per well, free uptake, 2,000 nM modified oligonucleotide, approx. 48 hours; RTS4814; normalized to RIBOGREEN; Yap1 mRNA as percent of untreated control
row,Substance,YAP1 (% UTC)
1,1075908 (kA*kA*kT*dA*dA*dG*dG*dA*dG*dT*dA*dG*dG*kT*kG*kG; antisense) [Compound 1075908],50
2,1074596 (antisense kT*kT*k[5mC]*dT*dA*dT*d[5mC]*d[5mC]*dA*dG*dG*dG*dT*k[5mC]*kA*kA) [Compound 1074596],12
3,1075492 (antisense kG*k[5mC]*kT*dA*dA*dA*dA*dT*dG*dA*dT*dA*d[5mC]*kT*kT*k[5mC]) [Compound 1075492],29
4,1074276 (antisense k[5mC]*k[5mC]*kA*dA*dG*dA*dG*dG*dT*dG*dG*dT*d[5mC]*kT*kT*kG) [Compound 1074276],87

# Same assay, conditions: Table 19; A-431 cells, 5,000 cells per well, free uptake, 2,000 nM modified oligonucleotide, approx. 48 hours; RTS4814; normalized to RIBOGREEN; Yap1 mRNA as percent of untreated control
row,Substance,YAP1 (% UTC)
1,1076517 (antisense k[5mC]*kA*kT*dA*dA*dT*dA*dA*dG*dA*d[5mC]*dT*dA*kA*kA*k[5mC]) [Compound 1076517],102
2,1074341 (antisense kA*kT*k[5mC]*d[5mC]*d[5mC]*dG*dG*dG*dA*dG*dA*dA*dG*kA*k[5mC]*kA) [Compound 1074341],106

# Same assay, conditions: Table 20; Yap1 mRNA, percent of untreated control; 3-10-3 cEt gapmers targeting SEQ ID NO.: 1 and 2
row,Substance,YAP1 (% UTC)
1,1074374 (antisense kT*kG*k[5mC]*dT*dT*dT*dG*dG*dT*dT*dG*dA*dT*kA*kG*kT) [Compound 1074374],13
2,1074310 (antisense kT*k[5mC]*k[5mC]*dG*d[5mC]*dA*dT*dT*dG*d[5mC]*d[5mC]*dT*dG*kT*kG*kG) [Compound 1074310],100

# Same assay, conditions: Table 21; Yap1 mRNA, percent of untreated control; 3-10-3 cEt gapmers targeting SEQ ID NO.: 1 and 2
row,Substance,YAP1 (% UTC)
1,1074695 (antisense k[5mC]*k[5mC]*k[5mC]*d[5mC]*d[5mC]*dT*dA*dA*dA*dT*d[5mC]*dT*dT*k[5mC]*kA*k[5mC]) [Compound 1074695],49
2,1075911 (kT*kG*kA*d[5mC]*dA*dA*dA*dA*d[5mC]*dA*dG*dG*d[5mC]*kA*k[5mC]*k[5mC]; antisense) [Compound 1075911],41

# Same assay, conditions: Table 22; Yap1 mRNA as percent of untreated control; 3-10-3 cEt gapmers; single dose
row,Substance,YAP1 (% UTC)
1,1075784 (kA*kT*kT*dT*dT*dA*dT*dA*dG*dG*dG*d[5mC]*d[5mC]*kA*kT*kT; antisense) [Compound 1075784],3
2,1074376 (antisense kA*kA*k[5mC]*dG*dG*dT*dT*d[5mC]*dT*dG*d[5mC]*dT*dG*kT*kG*kA) [Compound 1074376],44
3,1076040 (k[5mC]*kT*kT*dA*dA*dA*dG*dA*dA*dG*d[5mC]*dA*d[5mC]*kT*kA*kG; antisense) [Compound 1076040],105
4,1074120 (antisense kG*k[5mC]*kG*dA*dG*dG*d[5mC]*dA*d[5mC]*dT*d[5mC]*dG*dG*kA*k[5mC]*k[5mC]) [Compound 1074120],50

# Same assay, conditions: Table 23; Yap1 mRNA as percent of untreated control; 3-10-3 cEt gapmers; single dose
row,Substance,YAP1 (% UTC)
1,1075017 (antisense k[5mC]*kT*kT*dA*dA*dA*dG*dT*dG*dA*dT*dA*d[5mC]*kA*k[5mC]*k[5mC]) [Compound 1075017],19
2,1075433 (antisense kT*kT*kA*dA*d[5mC]*dT*dA*dA*d[5mC]*dT*dA*dA*dA*k[5mC]*kT*kG) [Compound 1075433],124
3,1075689 (k[5mC]*kA*kA*d[5mC]*dT*dA*dT*dA*d[5mC]*dA*dA*dG*dG*k[5mC]*kA*kA; antisense) [Compound 1075689],4
4,1075305 (kA*kA*kA*d[5mC]*dG*dA*dA*dA*d[5mC]*dA*d[5mC]*dG*dG*kG*kT*kA; antisense) [Compound 1075305],66

# Same assay, conditions: Table 24; Yap1 mRNA as percent of untreated control; 3-10-3 cEt gapmers targeting SEQ ID NO.: 1, and 2
row,Substance,YAP1 (% UTC)
1,1075978 (kA*kG*kA*dT*dT*dA*dA*dA*dA*dG*dT*d[5mC]*dG*kG*kG*k[5mC]; antisense) [Compound 1075978],11
2,1075530 (kG*kA*kA*dA*dT*d[5mC]*dG*dA*dA*dG*dG*dG*d[5mC]*kA*kA*kA; antisense) [Compound 1075530],30
3,1075722 (kG*kT*kT*dA*dA*dA*dT*dA*d[5mC]*d[5mC]*dT*dT*d[5mC]*kT*kA*kG; antisense) [Compound 1075722],88

# Same assay, conditions: Table 25; Yap1 mRNA as percent of untreated control; 3-10-3 cEt gapmers targeting SEQ ID NO.: 1, and 2
row,Substance,YAP1 (% UTC)
1,1075307 (kA*kT*kT*dA*dA*dA*d[5mC]*dG*dA*dA*dA*d[5mC]*dA*k[5mC]*kG*kG; antisense) [Compound 1075307],28
2,1076011 (kA*kT*kA*dT*dA*dA*dA*d[5mC]*dA*dA*dT*dA*dG*k[5mC]*kG*kA; antisense) [Compound 1076011],61
3,1076043 (k[5mC]*kA*kA*dA*dA*dA*dG*dG*d[5mC]*dT*dA*dT*dT*kG*kA*kG; antisense) [Compound 1076043],36
4,1076107 (k[5mC]*kA*kT*dT*dA*d[5mC]*d[5mC]*dA*dA*d[5mC]*dT*dT*d[5mC]*kT*kT*k[5mC]; antisense) [Compound 1076107],23
5,1076427 (k[5mC]*kA*kA*dA*dT*dT*dT*dA*d[5mC]*dT*dG*dA*dT*k[5mC]*kT*k[5mC]; antisense) [Compound 1076427],3
6,1074699 (antisense k[5mC]*kT*kA*dT*d[5mC]*dA*dA*dG*dG*dT*d[5mC]*d[5mC]*d[5mC]*k[5mC]*k[5mC]*kT) [Compound 1074699],27
7,1074539 (antisense k[5mC]*kT*kA*dT*d[5mC]*d[5mC]*dA*d[5mC]*dA*dG*dT*dA*dA*kT*kA*kG) [Compound 1074539],62

# Same assay, conditions: Table 32; Yap1 mRNA, percent of untreated control; 3-10-3 cEt gapmers targeting SEQ ID NO.: 1, and 2
row,Substance,YAP1 (% UTC)
1,1075698 (kG*kT*kT*dT*dA*dA*dT*dA*dA*dT*d[5mC]*d[5mC]*dA*kT*kG*k[5mC]; antisense) [compound 1075698],10
2,1074930 (antisense k[5mC]*kT*kA*dT*dA*d[5mC]*dA*dA*d[5mC]*dA*dG*dG*d[5mC]*k[5mC]*kT*kG) [compound 1074930],84

# Same assay, conditions: Table 33; Yap1 mRNA, percent of untreated control; 3-10-3 cEt gapmers targeting SEQ ID NO.: 1, and 2
row,Substance,YAP1 (% UTC)
1,1074611 (DNA kT*kA*kG*d[5mC]*dT*dT*dA*dT*dA*dT*dT*dG*dA*kA*kG*kA) [compound 1074611],19
2,1076435 (k[5mC]*kG*kT*dA*dA*dA*d[5mC]*dA*dT*d[5mC]*dA*dT*d[5mC]*kT*k[5mC]*kT; antisense) [compound 1076435],12
3,1075379 (antisense kT*kA*k[5mC]*d[5mC]*dA*dA*dA*dA*d[5mC]*dT*dA*d[5mC]*dA*kA*k[5mC]*k[5mC]) [compound 1075379],75

# Same assay, conditions: Yap1 mRNA as percent of untreated control; A-431 cells; 3-10-3 cEt gapmers targeting SEQ ID NO.: 1, and 2; Table 31
row,Substance,YAP1 (% UTC)
1,1074449 (k[5mC]*kT*kA*dA*dT*dG*dA*dT*dA*dG*d[5mC]*dA*d[5mC]*kT*kA*kG; antisense) [compound 1074449],36
2,1074385 (k[5mC]*kT*kT*d[5mC]*dA*dA*dG*dG*dT*dA*dG*dT*d[5mC]*kT*kG*kG; antisense) [compound 1074385],17
3,1075633 (antisense k[5mC]*kT*kA*dT*dA*dT*dT*dG*dG*d[5mC]*dT*d[5mC]*d[5mC]*kT*kA*kG) [compound 1075633],82
4,1074513 (kA*kG*kG*dA*dT*dA*d[5mC]*dA*dT*dT*d[5mC]*d[5mC]*dA*k[5mC]*kT*kA; antisense) [compound 1074513],47
